From patent US8623811B2, “Antimicrobial peptide, compositions, and methods of use” (Revance Therapeutics, Inc., priority 2007, dated 2014)

Columns and labels:
[1] = test system: acne; experiment: Topical use in a patient with acne; type: in vivo, human; conditions: continued use of the formulation for two years
Excerpt: A person with a two-year history of acne uses topical 5% peptide (SEQ ID NO:5) formulation twice a day for 4 weeks. The cream formulation is composed of the excipients cetyl alcohol, isopropyl myristate, stearyl alcohol, butylated hydroxytolune, polyoxyethylene stearyl ether, polyoxyethylene stearyl ether, edetate disodium, and purified water.

[2] = test system: Tinea Pedis (Athlete's feet); experiment: Soak and topical use in a patient with Tinea Pedis; type: in vivo, human; conditions: 0.05% peptide formulation for 5 years
Excerpt: The cream formulation is composed of the excipients cetyl alcohol, isopropyl myristate, stearyl alcohol, butylated hydrosyxtoluene, polyoxyethylene stearyl ether, polyoxyethylene stearyl ether, edetate disodium, and purified water.

## N=C(N)NCCC[C@H](NC(=O)[C@H](CCCNC(=N)N)NC(=O)[C@H](CCCNC(=N)N)NC(=O)[C@H](CCC(N)=O)NC(=O)[C@H](CCCNC(=N)N)NC(=O)[C@H](CCCNC(=N)N)NC(=O)[C@H](CCCCN)NC(=O)[C@H](CCCCN)NC(=O)[C@H](CCCNC(=N)N)NC(=O)CNC(=O)[C@H](CCCCN)NC(=O)[C@H](CCCCN)NC(=O)[C@H](CCCCN)NC(=O)[C@H](CCCCN)NC(=O)[C@H](CCCCN)NC(=O)[C@H](CCCCN)NC(=O)[C@H](CCCCN)NC(=O)[C@H](CCCCN)NC(=O)[C@H](CCCCN)NC(=O)[C@H](CCCCN)NC(=O)[C@H](CCCCN)NC(=O)[C@H](CCCCN)NC(=O)[C@H](CCCCN)NC(=O)[C@H](CCCCN)NC(=O)[C@H](CCCCN)NC(=O)CNC(=O)[C@H](CCCNC(=N)N)NC(=O)[C@H](CCCNC(=N)N)NC(=O)[C@H](CCCNC(=N)N)NC(=O)[C@H](CCC(N)=O)NC(=O)[C@H](CCCNC(=N)N)NC(=O)[C@H](CCCNC(=N)N)NC(=O)[C@H](CCCCN)NC(=O)[C@H](CCCCN)NC(=O)[C@@H](N)CCCNC(=N)N)C(=O)O [SEQ ID NO:5, Arg-Lys-Lys-Arg-Arg-Gln-Arg-Arg-Arg-Gly-(Lys)15-Gly-Arg-Lys-Lys-Arg-Arg-Gln-Arg-Arg-Arg]
[1]
  adverse events on continued use: no new breakouts or adverse events are observed
[2]
  adverse event on continued use: no further breakout or adverse event
